Experimental data: publication PMC10066365, “Nemacol is a small molecule inhibitor of C. elegans vesicular acetylcholine transporter with anthelmintic potential” (Nature Communications, 2023)
Several values for one entry are separate records, joined by “and”; a condition that tells them apart may be missing. Identical values can stand only once. Like-named read-outs stand apart in the source and are kept apart here.

Columns and labels:
[1] = system: C. elegans; assay: C. elegans motor phenotype scoring on solid media (Punc/jerky-unc, coiled, paralyzed), wild-type young adults; type: in vivo, Caenorhabditis elegans; details: for any phene, mean % fraction of young adults exhibiting any phenotype (coiled, jerky-Unc or paralyzed) / atypical locomotion (number of animals) / coiled (number of animals) / no phene (number of animals) / paralyzed (number of animals) / any phene (mean % fraction of young adults exhibiting any phenotype: coiled, jerky-Unc or paralyzed): one hour; for any phene, mean % fraction of young adults exhibiting any phenotype (coiled, jerky-Unc or paralyzed) / any phene (mean % fraction of young adults exhibiting any phenotype: coiled, jerky-Unc or paralyzed): mean of three biological replicates; for atypical locomotion (number of animals) / coiled (number of animals) / no phene (number of animals) / paralyzed (number of animals): young adults, 20 animals per trial, single replicate counts; for EC50: Caenorhabditis elegans, any motor phenotype after 1 h on solid media, ± 95% CI, read-out: C. elegans - motor disruption EC50
[2] = target: T1, rat VAChT (Rattus norvegicus, UniProt Q62666); assay: [3H]Vesamicol competitive radioligand binding, PC12 cells expressing ratVAChT
T1 construct: expressed in transfected cells; host or cells: rat PC12 (PC12 A123.7) cells, stably transfected; shared by Dr. Ali Roghani (Texas Tech University)
T1 sequence (Q62666 1-530): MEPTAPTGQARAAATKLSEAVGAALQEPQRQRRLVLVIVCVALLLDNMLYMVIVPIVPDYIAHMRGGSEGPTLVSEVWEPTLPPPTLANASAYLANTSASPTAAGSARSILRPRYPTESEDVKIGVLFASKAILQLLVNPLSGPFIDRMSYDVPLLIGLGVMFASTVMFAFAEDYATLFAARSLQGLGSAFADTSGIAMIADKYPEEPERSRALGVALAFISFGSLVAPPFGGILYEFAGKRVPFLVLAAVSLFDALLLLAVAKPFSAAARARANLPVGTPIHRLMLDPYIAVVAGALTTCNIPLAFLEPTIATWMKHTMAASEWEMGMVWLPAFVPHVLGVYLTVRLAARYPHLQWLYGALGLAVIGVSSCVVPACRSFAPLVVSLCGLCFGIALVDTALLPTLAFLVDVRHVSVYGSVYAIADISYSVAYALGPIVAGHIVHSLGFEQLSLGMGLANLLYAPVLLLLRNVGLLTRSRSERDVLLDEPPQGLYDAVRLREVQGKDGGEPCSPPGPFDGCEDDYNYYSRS

[3] = system: Dirofilaria immitis microfilariae; assay: Dirofilaria immitis microfilariae immobility assay (DiroImager, 72 h); details: for % effect (motility), DIROIM MF: Dirofilaria immitis microfilariae
How it was run: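 Motility read after 72 h drug exposure with an image-based high-throughput plate imager, 1% DMSO medium serving as negative control. Missouri-isolate microfilariae, roughly 250 per well, freshly purified and cultured in supplemented RPMI 1640.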

[4] = system: Dirofilaria immitis L3/L4; assay: Dirofilaria immitis L3/L4 motility assay (DiroImager, 72 h); details: for % effect (motility), DIROIM L4: Dirofilaria immitis L4
[5] = system: Pristionchus pacificus; assay: Pristionchus pacificus motor disruption dose-response on solid media, 1 h; details: for mean % any phene (coiled, jerky-Unc or paralyzed): Pristionchus pacificus young adults, mean of three biological replicates; for EC50: Pristionchus pacificus, 1 h, read-out: P. pacificus motor disruption EC50
[6] = conc 3.75, observed at one hour

CC1CCC(N2CCN(c3ccc([N+](=O)[O-])cc3)CC2)CC1 (centres unmarked) [Nemacol-5]
any phene, mean % fraction of young adults exhibiting any phenotype (coiled, jerky-Unc or paralyzed) ([1]; 3.75uM): 3.333% | atypical locomotion (number of animals) ([1]; 3.75uM): 0 and 3 and 1 | coiled (number of animals) ([1]; 3.75uM): 0 | no phene (number of animals) ([1]; 3.75uM): 20 and 17 and 19 | paralyzed (number of animals) ([1]; 3.75uM): 0 | any phene, mean % fraction of young adults exhibiting any phenotype (coiled, jerky-Unc or paralyzed) ([1]; 15uM): 97.5% | atypical locomotion (number of animals) ([1]; 15uM): 9 and 12 and 13 | coiled (number of animals) ([1]; 15uM): 10 and 6 and 5 and 4 | no phene (number of animals) ([1]; 15uM): 0 and 3 | paralyzed (number of animals) ([1]; 15uM): 1 and 2 and 0 and 3 and 5 | any phene, mean % fraction of young adults exhibiting any phenotype (coiled, jerky-Unc or paralyzed) ([1]; 60uM): 100% | atypical locomotion (number of animals) ([1]; 60uM): 1 and 3 and 0 and 2 and 16 and 15 | coiled (number of animals) ([1]; 60uM): 16 and 12 and 14 and 13 and 0 | no phene (number of animals) ([1]; 60uM): 0 | paralyzed (number of animals) ([1]; 60uM): 3 and 5 and 6 and 4 | EC50 [1]: 7.3 ± 3.8 µM | Ki ([2]; [3H]Vesamicol displacement, mean, read-out: ratVAChT Ki): 3.76e-07 M | % effect (motility), DIROIM MF ([3]; 0.08 µM): 0% | % effect (motility), DIROIM MF ([3]; 0.4 µM): 0% | % effect (motility), DIROIM MF ([3]; 2 µM): 20% | % effect (motility), DIROIM MF ([3]; 10 µM): 80% | % effect (motility), DIROIM MF ([3]; 50 µM): 100% | EC50 ([3]; Dirofilaria immitis, 72 h, read-out: Dirofilaria immitis filariae EC50): 4.5 µM | % effect (motility), DIROIM L4 ([4]; 0.016 µM): 5% | % effect (motility), DIROIM L4 ([4]; 0.08 µM): 0% | % effect (motility), DIROIM L4 ([4]; 0.4 µM): 0% | % effect (motility), DIROIM L4 ([4]; 2 µM): 10% | % effect (motility), DIROIM L4 ([4]; 10 µM): 100% | % effect (motility), DIROIM L4 ([4]; 50 µM): 100% | activity against D. immitis (EC50) ([4]; either D. immitis assay of Fig. 4c): low micromolar activity | mean % any phene (coiled, jerky-Unc or paralyzed) [5, 6]: 0% | mean % any phene (coiled, jerky-Unc or paralyzed) ([5]; conc 15, observed at one hour): 15% | mean % any phene (coiled, jerky-Unc or paralyzed) ([5]; conc 60, observed at one hour): 100% | EC50 [5]: 16.5 µM

Cc1ccc(N2CCN(CC3CC4C=CC3C4)CC2)cc1 (centres unmarked) [Nemacol-43]
any phene (mean % fraction of young adults exhibiting any phenotype: coiled, jerky-Unc or paralyzed) ([1]; 3.75uM, third c14 line of each analog): 33.7698% | any phene (mean % fraction of young adults exhibiting any phenotype: coiled, jerky-Unc or paralyzed) ([1]; 15uM, second c14 line of each analog): 100% | any phene (mean % fraction of young adults exhibiting any phenotype: coiled, jerky-Unc or paralyzed) ([1]; 60uM, first c14 line of each analog): 100% | EC50 [1]: 3.9 µM | Ki ([2]; [3H]Vesamicol binding, PC12, experiment 1, read-out: expt 1 Ki (M) vs. rat VAChT (PC12)): 1.91e-07 M | Ki ([2]; [3H]Vesamicol binding, PC12, experiment 2, read-out: expt 2 Ki (M) vs. rat VAChT (PC12)): 1.26e-07 M | Ki ([2]; [3H]Vesamicol binding, rat VAChT (PC12), mean of 2-3 experiments, read-out: mean Ki): 1.59e-07 M | % effect (motility), DIROIM MF ([3]; 0.016 µM): 0% | % effect (motility), DIROIM MF ([3]; 0.08 µM): 0% | % effect (motility), DIROIM MF ([3]; 0.4 µM): 0% | % effect (motility), DIROIM MF ([3]; 2 µM): 0% | % effect (motility), DIROIM MF ([3]; 10 µM): 0% | % effect (motility), DIROIM L4 ([4]; 2 µM): 6% | % effect (motility), DIROIM L4 ([4]; 10 µM): 5% | % effect (motility), DIROIM L4 ([4]; 50 µM): 20% | mean % any phene (coiled, jerky-Unc or paralyzed) [5, 6]: 0% | mean % any phene (coiled, jerky-Unc or paralyzed) ([5]; conc 15, observed at one hour): 20.8333% | mean % any phene (coiled, jerky-Unc or paralyzed) ([5]; conc 60, observed at one hour): 76.4035% | EC50 [5]: 31.5 ± 4.9 µM
